The values below come from patent EP0476645B1, “Calcium uptake inhibitors” (MERRELL DOW PHARMACEUTICALS INC., priority 1990, dated 1992).

In one test the test system is Rat PMNL. The test can be described thus: Superoxide anion (SOA) production by stimulated PMNL. Type of test: cell-based. The note with it: for inhibition of superoxide anion production: PMA and OZ stimulus, result in words; for inhibition at 1 µM / inhibition at 3 µM / inhibition at 10 µM / inhibition at 30 µM / inhibition at 100 µM: Rattus norvegicus, PMNL, inhibition of superoxide anion production; for inhibition at 1 µM: 1 µM compound; for inhibition at 3 µM: 3 µM compound; for inhibition at 10 µM: 10 µM compound; for inhibition at 30 µM: 30 µM compound; for inhibition at 100 µM: 100 µM compound. The protocol: Rat PMNL were obtained from exudates resulting from peritoneal injection of 6 mL of 8% sodium caseinate. Eighteen hours after injection rats were killed by carbon dioxide inhalation and the peritoneal cavity lavaged with Hank's balanced salt solution (HBSS). After concentration of the PMNL by centrifugation, contaminating erythrocytes were removed by hypotonic lysis. The PMNL were then washed twice by centrifugation (400 x g for 10 minutes) and resuspended in HBSS. Cell viability was greater than 90% by Trypan Blue exclusion and greater than 90% of the cells were PMNL by Wright-Giemsa stain.
Aliquots (50 µl) of a rat PMNL suspension (2 x 10⁷ cells/mL in HBSS) were incubated with 50 µl of HBSS containing vehicle (0.3% DMSO) or compound for 30 minutes at 37°C as above. One hundred microliters of buffer containing 5.98 mg/mL of cytochrome C (Sigma Type III) and 0.1 mg/mL catalase, plus the compounds where appropriate, were then added to each sample. A blank for spectrophotometric measurement, containing unstimulated cells in the presence of cytochrome C, catalase and SOD, was also prepared. To activate the PMNL, 75 µl of PMA or OZ were added to achieve the final concentration of cell activator (plus vehicle or inhibitor as described above for MPO release) and the cells further incubated at 37°C for 60 minutes. The activation was terminated by centrifugation at 600 x g for 5 minutes at 4°C. Aliquots (200 µl) of supernatant were then transferred to a second, flat-well microtiter plate and measured spectrophotometrically at 550 nm. […]

Test [1] concerns Carrageenin-Induced Rat Paw Edema. The test can be described thus: Carrageenin-induced rat paw edema. It counts as in vivo, Charles River male Sprague-Dawley rats. To be noted: one hour prior to paw injection, paw volume three hours after carrageenin, dose not given. The protocol: Charles River male Sprague-Dawley rats weighing 90 to 100 grams were used. Inflammation of the left hind paw was induced by a 1% carrageenin solution (0.05 cc), injected into the plantar surface of the paw. The contralateral paw was injected with an equal volume of saline. Drugs were administered orally or i.p. (1 cc/100 grams) one hour prior to paw injection. Three hours following the carrageenin injection the difference in volume of the control and inflamed paw was measured. Each paw was immersed in a well of mercury and the volume of mercury displaced was recorded. Paws were uniformly dipped into the mercury up to the beginning of the hairline. A venous pressure transducer, coupled to a chart recorder, was employed to measure the small volumes of mercury displaced. Each group measurement consists of the average of four rats, each with three separate measurements.
In general terms: The carrageenan paw model is a standard test of acute inflammation.

Where [2] appears, read: PMA stimulus, read-out: PMA/SOA.
Where [3] appears, read: opsonized zymosan stimulus, read-out: OZ/SOA.

Broadly, the %Inhibition is the relative decrease from the control value, in per cent.

Like-named read-outs stand apart in the source and are kept apart here.

Take `CN(C)c1ccc(C(=O)C#Cc2ccncc2)cc1` [MDL 102,175, 1-(4-Dimethylaminophenyl)-3-(4-pyridinyl)-2-propyne-1-one]: the “inhibition of superoxide anion production” value with Rat PMNL is reported as “inhibited in a dose dependent fashion”. For the same molecule, in the test with Rat PMNL (setting [2]), the inhibition at 1 µM is -20.2%, the inhibition at 3 µM was determined as 13.5%, the inhibition at 10 µM turned out to be 49.7% and the inhibition at 30 µM came out at 77.7%. In addition, the inhibition at 100 µM in the test on Rat PMNL (setting [2]) came out at 100%. In addition, in the test on Rat PMNL (setting [3]), the inhibition at 1 µM is -15%, the inhibition at 3 µM was 15.4%, the inhibition at 10 µM amounted to 44.1% and the inhibition at 30 µM stood at 75.7%. Also, the inhibition at 100 µM in the test with Rat PMNL (setting [3]) stood at 89.8%. In test [1] (i.p.), the “%Inhibition” value amounted to 73.2%. Besides, the “%Inhibition” value in test [1] (p.o.) came out at 19.8%.
Turning to `O=C(C#Cc1ccncc1)c1ccccc1` [MDL 101,098, 1-Phenyl-3-(4-pyridinyl)-2-propyne-1-one], the “inhibition of superoxide anion production” value with Rat PMNL is given as “inhibited in a dose dependent fashion”. In addition, in the test with Rat PMNL (setting [2]), the inhibition at 1 µM was -30.7%, the inhibition at 3 µM is -4.3%, the inhibition at 10 µM was determined as 29.1% and the inhibition at 30 µM was 70%. In addition, the inhibition at 100 µM with Rat PMNL (setting [2]) came out at 97.2%. Also, in the test on Rat PMNL (setting [3]), the inhibition at 1 µM was -18%, the inhibition at 3 µM is -7.5%, the inhibition at 10 µM was 20.3% and the inhibition at 30 µM worked out at 61.5%. In addition, the inhibition at 100 µM in the test with Rat PMNL (setting [3]) amounted to 115%. In addition, in test [1] (i.p.), the “%Inhibition” value is 64.8%. Further, the “%Inhibition” value in test [1] (p.o.) was 42.4%.
